Results: patent US8124135B2, “Compositions and methods for reduction of LDL oxidation” (VDF FutureCeuticals, Inc., priority 2005, dated 2012)

System: Cu-induced LDL oxidation in human serum
Test: Cu-induced LDL oxidation in human serum ex vivo (fluorescence)
Settings: after 2 hrs of serum exposure to copper ions
Description: Total amounts of cholesterol, HDL, LDL, triglycerides were measured using Cholestech System. SPG in powder form was provided by VDF FutureCeuticals, Inc. and dissolved in water at various ad indicated concentrations. Copper chloride was from Sigma. Black transparent-bottom 96-well plates were from Nalgene Nunc International. Oxidation of LDL was measured using fluorescence methods as described elsewhere (supra). Cu-induced LDL oxidation was performed in PBS (100 ul/well) with 4 ul of human sera, 2 ul of copper chloride (concentration 4 mM) and 0.5 ul of H2O2 (concentration 88.2 nM) resulting in 8-uM concentration of copper ions and 44 μM of hydrogen peroxide, respectively. Formation of Cu-induced oxLDL was measured directly in human serum using a 96-well plate set up and Gemini Fluorescent plate reader (Molecular Devices). The fluorescence signal at 360/430 and 360/470 was measured at time 0, 2 and 16 hours. oxLDL fluorescence values compared to concentration 0 on each graph show how much fluorescent signal for oxidized LDL increased between time 0 and 2 or 16 hrs, respectively, while the value at concentration 0 represents the max increase of oxLDL generation under the experimental conditions.

IC50 of Cu-induced LDL oxidation in serum: 69 µg/mL
SMILES: O=C1O[C@H]([C@@H](O)CO)C(O)=C1O [ascorbic acid]
